According to patent publication US9512072B2, “Biodegradable computed tomography contrast agents” (Case Western Reserve University, priority 2013, dated 2016):

System: BALB/c mice
Experiment: In vivo blood pool CT imaging on micro-CT scanner
Parameters: species or system mouse
Conditions: 350 mg-I/kg i.v.
Procedure: The polymeric contrast agents and the control contrast agent, iodixanol, were evaluated with BALB/c mice (18-22 g body weight, 6 mice per agent). All the mice were scanned on the same machine as the in vitro detection. The images were obtained at an x-ray voltage of 80 kVp, an anode current of 500 μA and an exposure time of 200 ms for every rotational steps (total rotation degree is 360 and rotation steps are 180). The field of view was […]. Images were reconstructed in a 1024 pixel×1024 pixel grid with a pixel size of 18 μm×18 μm. […]
CT values are expressed in Hounsfield Units (HU) and were obtained per organ by drawing volumetric regions of interest (RIOs). […] The average HU values and the standard deviation were calculated from the data with 3 ROIs per organ. The CT data was analyzed to determine the contrast enhancement of different agents at various time points post-injection. In vivo CT values of the regions of interest, such as heart, blood, liver and bladder, were measured to study the dynamic enhancement of different organs. […]
The effectiveness of the iodinated polydisulfides for in vivo contrast enhanced CT imaging was assessed in BALB/c mice (18-22 g body weight, 6 mice per agent) on a micro-CT scanner with iodixanol as a control agent. […]

Structure (SMILES): CC(=O)N(CC(O)CN(C(C)=O)c1c(I)c(C(=O)NCC(O)CO)c(I)c(C(=O)NCC(O)CO)c1I)c1c(I)c(C(=O)NCC(O)CO)c(I)c(C(=O)NCC(O)CO)c1I (centres unmarked) [iodixanol]
- vascular enhancement and delineation (10 min after injection): did not produce any enhancement
- blood signal at its peak (pre-injection 27±30 HU): 56±26 HU
